We go through 1 molecule from US20120107323A1, “KINASE PROTEIN BINDING INHIBITORS” (University of Florida, priority 2009, published 2012).

The term IC50 denotes the concentration that gives 50% inhibition.

The subject of one assay is A375 melanoma cells. Description: Cell viability (MTT), A375. The format is cell-based, human. How it is done: (§1) Cell viability (MTT) and CFSE Proliferation assay: Cells were plated in 96-well plates and let adhere overnight. After cell treatment, cell viability was measured by 3-(4,5-dimethylthiazol-2-yl)-2,5-diphenyl tetrazolium bromide (MTT) assay (CellTiter 96® Aqueous, Promega, Madison, Wis.).
(§2) Cell viability and detachment assays: After cells were treated with siRNA transfection, cell viability was measured by 3-(4,5-dimethylthiazol2-yl)-2,5-diphenyl tetrazolium bromide (MTT) assay (CellTiter 96® AQueous, Promega, Madison, Wis.). Briefly, 20 μl of the tetrazolium compound was added to each well. The cells were then incubated at 37° C. for 1 h. The plate was read at 490 nm with a plate reader to determine the viability. In detachment assays, detached and attached cells were harvested separately and counted in a hemocytometer. The percentage of detachment was calculated by dividing the number of detached cells by the total number of cells. Apoptosis assays: After treatment, attached and detached cells were collected, counted and prepared for terminal uridine deoxynucleotidyl transferase (TUNEL) assay by utilizing an APO-BRDU kit (BD Pharmingen, San Diego, Calif.) according to the manufacturer's instructions. Stained cells were analyzed with a fluorescence-activated cell sorting-Calibur flow cytometer (BD Biosciences). Calculation of the percentage of apoptotic cells in the sample was completed with CellQuest software (BD Biosciences). Apoptotic cells were also analyzed by Hoechst staining. Hoechst 33342 ([…]) was added to the fixed cells and the specimens were mounted on glass coverslips. The slides were viewed under the Zeiss microscope for apoptotic nuclei. The percent of apoptotic cells was calculated as the ratio of apoptotic cells to total number of cells.
In addition, the effect of INT2-31 on cell viability of esophageal, pancreatic and breast cancer cell lines was analyzed and the IC50 value for each cell line was determined, as shown in Table 1. […] Similar to melanoma results, INT2-31 inhibits viability more in cancer cells compared to normal cells. […]

Another assay deals with C8161 melanoma cells. The experiment in a line: Cell viability (MTT), C8161. It is filed as cell-based, human. As for the experimental part: as §1, §2
In addition, the effect of INT2-31 on cell viability of esophageal, pancreatic and breast cancer cell lines was analyzed and the IC50 value for each cell line was determined, as shown in Table 1. […] Similar to melanoma results, INT2-31 inhibits viability more in cancer cells compared to normal cells. Sensitivity of the cells to INT2-31 varied and directly correlated to the FAK and IGF-1R expression level of the cells.
To determine the effect on melanoma cell viability, three human melanoma cell lines were exposed to increasing doses of INT2-31 for 72 h and the results compared to human melanocytes. […] The effects of INT2-31 varied in the three cell lines and was possibly related to constitutive FAK and IGF-1R activation with the least sensitive cell line (SK-MEL-28) having the greatest expression of FAK and IGF-1R.

The subject of assay [1] is esophageal patient #5 cells. Description: Cell viability (MTT), esophageal patient #5 cells. It is filed as cell-based. Particulars: Homo sapiens, average IC50. As for the experimental part: as §1
To assimilate the effects of targeting the interaction of these proteins in direct patient specimens, a system was developed in which direct esophageal cancer specimens were grown in mice and tissue culture plates to allow fresh human tissue for experimentation. More than 20 tumors and corresponding normal tissue specimens have been obtained from cancer patients. […] To evaluate the in vitro effects of INT2-31 on patient specimens, we utilized MTT assay of cells grown in a tissue culture plate maximum up to eight passages were utilized.

SMILES strings stand for the structures.

Turning to `CSc1ncnc2c1ccn2C1O[C@H](COP(=O)(O)O)[C@@H](O)[C@H]1O` (stereo partly drawn) [INT2-31, 4-(Methylthio)-7-(5-O-phosphono-D-ribofuranosyl)-{7H-Pyrrolo[2,3-d]pyrimidine}], the “cell viability (in words)” value was “inhibited cell viability in a dose-dependent manner” in the assay with A375 melanoma cells (A375, MTT) and “inhibited cell viability in a dose-dependent manner” in the assay on C8161 melanoma cells (C8161, MTT). The IC50 in the assay with A375 melanoma cells (Homo sapiens, A-375, A375, 72 hours, read-out: IC50 of INT2-31, cell viability) was 2700 nM; in the assay on C8161 melanoma cells (Homo sapiens, C8161, 72 hours, read-out: IC50 of INT2-31, cell viability) it was 500 nM; in assay [1], 2180 nM. In the assay on C8161 melanoma cells (MTT, FAK shRNA1 knockdown), the “sensitivity of C8161 cells expressing FAK shRNA compared to parental and mock transfected cells” value is reported as “significantly less sensitive”.
